Measured values published in patent US20240189289A1, “INHIBITORS OF EPHB3 SIGNALING” (The Brigham and Women`s Hospital, Inc., priority 2021, published 2024).

biological target: T1, EphB3 (Homo sapiens, UniProt P54753); experiment: EphB3 radiometric kinase activity assay (33P ATP filter binding); type: biochemical; conditions: Example 14; read-out: IC50 (μM), EphB3 receptor kinase inhibitory activity
T1 sequence (P54753 34-998): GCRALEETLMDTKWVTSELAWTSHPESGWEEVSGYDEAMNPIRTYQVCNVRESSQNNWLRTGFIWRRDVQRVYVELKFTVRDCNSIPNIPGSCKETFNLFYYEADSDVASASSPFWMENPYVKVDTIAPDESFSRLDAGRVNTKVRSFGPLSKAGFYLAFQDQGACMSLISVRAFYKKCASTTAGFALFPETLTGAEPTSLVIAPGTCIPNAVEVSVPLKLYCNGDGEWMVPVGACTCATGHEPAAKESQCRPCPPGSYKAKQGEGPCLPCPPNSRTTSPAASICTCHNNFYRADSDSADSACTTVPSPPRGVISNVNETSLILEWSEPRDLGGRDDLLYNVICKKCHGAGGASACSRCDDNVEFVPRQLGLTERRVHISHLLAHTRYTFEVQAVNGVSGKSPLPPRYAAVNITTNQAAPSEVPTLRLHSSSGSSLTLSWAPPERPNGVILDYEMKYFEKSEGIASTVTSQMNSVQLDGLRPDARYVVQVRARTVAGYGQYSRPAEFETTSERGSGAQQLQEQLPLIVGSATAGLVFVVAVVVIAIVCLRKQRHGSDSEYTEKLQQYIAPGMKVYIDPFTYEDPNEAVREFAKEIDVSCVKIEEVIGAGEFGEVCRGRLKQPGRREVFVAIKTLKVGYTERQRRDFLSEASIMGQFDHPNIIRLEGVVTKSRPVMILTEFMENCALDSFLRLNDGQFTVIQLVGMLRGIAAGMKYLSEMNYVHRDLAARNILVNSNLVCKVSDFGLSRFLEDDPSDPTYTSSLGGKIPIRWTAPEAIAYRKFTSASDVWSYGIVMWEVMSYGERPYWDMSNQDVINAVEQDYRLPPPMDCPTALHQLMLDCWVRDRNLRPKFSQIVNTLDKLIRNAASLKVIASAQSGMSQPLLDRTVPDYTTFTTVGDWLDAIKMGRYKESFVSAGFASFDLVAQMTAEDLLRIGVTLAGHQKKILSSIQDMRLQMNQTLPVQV
Protocol: EphB3 radiometric kinase activity assay. To study the EphB3 kinase activity, a radioactive filter binding assay using 33P ATP was performed as described at the […] International Centre for Kinase profiling. […] The mix was harvested onto P81 filter plates and counts were read on a Topcount NXT.

SMILES	IC50
O=C(Nc1ncccc1Cl)c1cnc2ccc(C3CCNCC3)cn12 [compound 120, N-(3-chloropyridin-2-yl)-6-(piperidin-4-yl)imidazo[1,2-a]pyridine-3-carboxamide]	2.9 µM
O=C(Nc1ccncc1Cl)c1cnc2ccc(C3CCNCC3)cn12 [compound 121, N-(3-chloropyridin-4-yl)-6-(piperidin-4-yl)imidazo[1,2-a]pyridine-3-carboxamide]	8.1 µM
CN1CCC(c2ccc3ncc(C(=O)Nc4ccccc4Cl)n3c2)CC1 [compound 122, N-(2-chlorophenyl)-6-(1-methylpiperidin-4-yl)imidazo[1,2-a]pyridine-3-carboxamide]	0.089 µM

The remaining lines, values ahead:

IC50	SMILES
6 µM	O=C(Nc1cccc(F)c1Cl)c1cnc2ccc(C3CCNCC3)cn12 [compound 123, N-(2-chloro-3-fluorophenyl)-6-(piperidin-4-yl)imidazo[1,2-a]pyridine-3-carboxamide]
84 µM	O=C(Nc1cccc2c1CCO2)c1cnc2ccc(C3CCNCC3)cn12 [compound 124, N-(2,3-dihydrobenzofuran-4-yl)-6-(piperidin-4-yl)imidazo[1,2-a]pyridine-3-carboxamide]
